Source: article PMC9954146, “Anti-Leukaemic Activity of Rilpivirine Is Mediated by Aurora A Kinase Inhibition” (Cancers, 2023)

Experiments:
Test in all cases: Kinase panel
Type in all cases: biochemical
Conditions in all cases: read-out: % Residual Activity
A-Raf(h) = target: T1, A-Raf(h) (Homo sapiens, UniProt P10398)
T1 construct: purchased Eurofins (KinaseProfiler)
In short: (§1)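 Steps: profile rilpivirine against a broad kinase panel; determine IC50 by radioactive assay using ATP at the kinase-specific Km; convert IC50 to Ki by the Cheng–Prusoff relationship.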

AMPKα1(h) = target: T2, AMPKα1(h) (Homo sapiens, UniProt Q13131)
T2 construct: purchased Eurofins (KinaseProfiler)
In short: as §1

AMPKα2(h) = target: T3, AMPKα2(h) (Homo sapiens, UniProt P54646)
T3 construct: purchased Eurofins (KinaseProfiler)
In short: as §1

CDK2/cyclinA(h) = target: T4, CDK2/cyclinA(h) (Homo sapiens, UniProt P24941)
T4 construct: purchased Eurofins (KinaseProfiler)
In short: as §1

CDK5/p25(h) = target: T5, CDK5/p25(h) (Homo sapiens, UniProt Q00535)
T5 construct: purchased Eurofins (KinaseProfiler)
In short: as §1

CHK2(h) = target: T6, CHK2(h) (Homo sapiens, UniProt O96017)
T6 construct: purchased Eurofins (KinaseProfiler)
In short: as §1

CLK3(h) = target: T7, CLK3(h) (Homo sapiens, UniProt P49761)
T7 construct: purchased Eurofins (KinaseProfiler)
In short: as §1

DYRK2(h) = target: T8, DYRK2(h) (Homo sapiens, UniProt Q92630)
T8 construct: purchased Eurofins (KinaseProfiler)
In short: as §1

FGFR1(V561M)(h) = target: T9, FGFR1(V561M)(h) (Homo sapiens, UniProt P11362, V561M)
T9 construct: purchased Eurofins (KinaseProfiler)
In short: as §1

Hck(h) activated = target: T10, Hck(h) activated (Homo sapiens, UniProt P08631)
T10 construct: purchased Eurofins (KinaseProfiler)
In short: as §1

ICK(h) = target: T11, ICK(h) (Homo sapiens, UniProt Q9UPZ9)
T11 construct: purchased Eurofins (KinaseProfiler)
In short: as §1

IR(h), activated = target: T12, IR(h), activated (Homo sapiens, UniProt P06213)
T12 construct: purchased Eurofins (KinaseProfiler)
In short: as §1

MAPK2(h) = target: T13, MAPK2(h) (Homo sapiens, UniProt P28482)
T13 construct: purchased Eurofins (KinaseProfiler)
In short: as §1

MAPKAP-K2(h) = target: T14, MAPKAP-K2(h) (Homo sapiens, UniProt P49137)
T14 construct: purchased Eurofins (KinaseProfiler)
In short: as §1

MAPKAP-K3(h) = target: T15, MAPKAP-K3(h) (Homo sapiens, UniProt Q16644)
T15 construct: purchased Eurofins (KinaseProfiler)
In short: as §1

MARK3(h) = target: T16, MARK3(h) (Homo sapiens, UniProt P27448)
T16 construct: purchased Eurofins (KinaseProfiler)
In short: as §1

MEK1(h) = target: T17, MEK1(h) (Homo sapiens, UniProt Q02750)
T17 construct: purchased Eurofins (KinaseProfiler)
In short: as §1

MRCKα(h) = target: T18, MRCKα(h) (Homo sapiens, UniProt Q5VT25)
T18 construct: purchased Eurofins (KinaseProfiler)
In short: as §1

MSK2(h) = target: T19, MSK2(h) (Homo sapiens, UniProt O75676)
T19 construct: purchased Eurofins (KinaseProfiler)
In short: as §1

Met(M1268T)(h) = target: T20, Met(M1268T)(h) (Homo sapiens, UniProt P08581, M1250T)
T20 construct: purchased Eurofins (KinaseProfiler)
In short: as §1

NEK4(h) = target: T21, NEK4(h) (Homo sapiens, UniProt P51957)
T21 construct: purchased Eurofins (KinaseProfiler)
In short: as §1

PDGFRα(h) = target: T22, PDGFRα(h) (Homo sapiens, UniProt P16234)
T22 construct: purchased Eurofins (KinaseProfiler)
In short: as §1

[1] = target: PI3 Kinase (p110a/p65a)(h) (Homo sapiens, UniProt P42336)
In short: as §1

PI3KC2g(h) = PI3KC2g(h) (Homo sapiens, UniProt O75747)
In short: as §1

PIP5K1g(h) = PIP5K1g(h) (Homo sapiens, UniProt O60331)
In short: as §1

PKA(h) = target: T23, PKA(h) (Homo sapiens, UniProt P17612)
T23 construct: purchased Eurofins (KinaseProfiler)
In short: as §1

PKAcβ(h) = target: T24, PKAcβ(h) (Homo sapiens, UniProt P22694)
T24 construct: purchased Eurofins (KinaseProfiler)
In short: as §1

PKCθ(h) = target: T25, PKCθ(h) (Homo sapiens, UniProt Q04759)
T25 construct: purchased Eurofins (KinaseProfiler)
In short: as §1

PRP4(h) = target: T26, PRP4(h) (Homo sapiens, UniProt Q13523)
T26 construct: purchased Eurofins (KinaseProfiler)
In short: as §1

Ret(h) = target: T27, Ret(h) (Homo sapiens, UniProt P07949)
T27 construct: purchased Eurofins (KinaseProfiler)
In short: as §1

Rsk1(r) = target: T28, Rsk1(r) (Rattus norvegicus, UniProt Q63531)
T28 construct: purchased Eurofins (KinaseProfiler)
In short: as §1

SIK3(h) = target: T29, SIK3(h) (Homo sapiens, UniProt Q9Y2K2)
T29 construct: purchased Eurofins (KinaseProfiler)
In short: as §1

TLK1(h) = target: T30, TLK1(h) (Homo sapiens, UniProt Q9UKI8)
T30 construct: purchased Eurofins (KinaseProfiler)
In short: as §1

TRB2(h) = target: T31, TRB2(h) (Homo sapiens, UniProt Q92519)
T31 construct: purchased Eurofins (KinaseProfiler)
In short: as §1

TSSK2(h) = target: T32, TSSK2(h) (Homo sapiens, UniProt Q96PF2)
T32 construct: purchased Eurofins (KinaseProfiler)
In short: as §1

TTBK1(h) = target: T33, TTBK1(h) (Homo sapiens, UniProt Q5TCY1)
T33 construct: purchased Eurofins (KinaseProfiler)
In short: as §1

Tie2(Y897S)(h) = target: T34, Tie2(Y897S)(h) (Homo sapiens, UniProt Q02763, Y897S)
T34 construct: purchased Eurofins (KinaseProfiler)
In short: as §1

cSRC(h) = target: T35, cSRC(h) (Homo sapiens, UniProt P12931)
T35 construct: purchased Eurofins (KinaseProfiler)
In short: as §1

T14 sequence (P49137 whole entry): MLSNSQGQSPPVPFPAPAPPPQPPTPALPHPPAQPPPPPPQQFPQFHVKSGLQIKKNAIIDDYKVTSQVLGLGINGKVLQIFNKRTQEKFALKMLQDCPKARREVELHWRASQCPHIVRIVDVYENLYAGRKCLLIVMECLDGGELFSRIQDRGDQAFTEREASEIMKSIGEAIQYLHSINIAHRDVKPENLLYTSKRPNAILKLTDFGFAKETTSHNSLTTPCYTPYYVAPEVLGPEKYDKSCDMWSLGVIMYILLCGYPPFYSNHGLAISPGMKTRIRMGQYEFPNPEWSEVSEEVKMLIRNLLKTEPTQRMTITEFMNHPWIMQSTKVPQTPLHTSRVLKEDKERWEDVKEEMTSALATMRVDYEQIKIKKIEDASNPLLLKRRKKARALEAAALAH
T15 sequence (Q16644 whole entry): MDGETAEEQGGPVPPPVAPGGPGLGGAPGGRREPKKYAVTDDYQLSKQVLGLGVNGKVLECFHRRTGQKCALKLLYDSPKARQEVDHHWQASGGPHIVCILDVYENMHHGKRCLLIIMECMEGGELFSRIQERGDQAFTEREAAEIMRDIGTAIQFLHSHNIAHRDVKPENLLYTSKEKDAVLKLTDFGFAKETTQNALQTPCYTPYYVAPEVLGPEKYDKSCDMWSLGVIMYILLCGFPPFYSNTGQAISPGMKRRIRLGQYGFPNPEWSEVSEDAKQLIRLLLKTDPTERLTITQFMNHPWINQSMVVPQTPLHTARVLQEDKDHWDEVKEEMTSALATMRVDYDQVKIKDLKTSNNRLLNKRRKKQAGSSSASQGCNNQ
T31 sequence (Q92519 whole entry): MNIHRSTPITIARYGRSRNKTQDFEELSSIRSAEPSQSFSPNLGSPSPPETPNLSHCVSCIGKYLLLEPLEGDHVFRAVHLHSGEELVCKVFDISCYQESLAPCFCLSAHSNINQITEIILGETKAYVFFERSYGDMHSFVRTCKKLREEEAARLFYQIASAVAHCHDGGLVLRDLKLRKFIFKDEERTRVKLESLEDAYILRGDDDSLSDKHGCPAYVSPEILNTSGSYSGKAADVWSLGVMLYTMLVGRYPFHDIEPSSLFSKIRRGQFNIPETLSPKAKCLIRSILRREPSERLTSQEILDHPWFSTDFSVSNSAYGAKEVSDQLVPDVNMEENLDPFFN
T9 sequence (P11362 22-822 V561M): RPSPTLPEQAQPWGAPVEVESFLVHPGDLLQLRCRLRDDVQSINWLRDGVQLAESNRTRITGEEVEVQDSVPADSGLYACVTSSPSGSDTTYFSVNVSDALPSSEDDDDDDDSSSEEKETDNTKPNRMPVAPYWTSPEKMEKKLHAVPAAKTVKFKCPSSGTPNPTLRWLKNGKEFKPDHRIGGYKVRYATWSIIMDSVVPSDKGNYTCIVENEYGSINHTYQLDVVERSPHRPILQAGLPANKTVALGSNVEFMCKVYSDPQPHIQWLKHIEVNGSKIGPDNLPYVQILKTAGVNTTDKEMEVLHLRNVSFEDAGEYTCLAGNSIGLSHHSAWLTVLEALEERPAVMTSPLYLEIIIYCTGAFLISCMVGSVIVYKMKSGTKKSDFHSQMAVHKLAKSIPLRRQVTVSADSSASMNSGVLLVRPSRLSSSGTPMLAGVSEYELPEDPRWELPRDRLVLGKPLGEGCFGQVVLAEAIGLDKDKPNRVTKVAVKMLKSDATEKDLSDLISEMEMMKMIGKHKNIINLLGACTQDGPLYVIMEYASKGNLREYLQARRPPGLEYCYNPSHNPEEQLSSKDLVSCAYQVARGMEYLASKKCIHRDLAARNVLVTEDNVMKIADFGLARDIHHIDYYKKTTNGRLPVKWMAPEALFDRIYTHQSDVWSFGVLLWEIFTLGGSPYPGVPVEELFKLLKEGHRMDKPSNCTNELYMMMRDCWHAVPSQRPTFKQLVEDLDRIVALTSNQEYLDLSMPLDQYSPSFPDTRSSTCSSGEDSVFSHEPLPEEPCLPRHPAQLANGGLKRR
T34 sequence (Q02763 23-1124 Y897S): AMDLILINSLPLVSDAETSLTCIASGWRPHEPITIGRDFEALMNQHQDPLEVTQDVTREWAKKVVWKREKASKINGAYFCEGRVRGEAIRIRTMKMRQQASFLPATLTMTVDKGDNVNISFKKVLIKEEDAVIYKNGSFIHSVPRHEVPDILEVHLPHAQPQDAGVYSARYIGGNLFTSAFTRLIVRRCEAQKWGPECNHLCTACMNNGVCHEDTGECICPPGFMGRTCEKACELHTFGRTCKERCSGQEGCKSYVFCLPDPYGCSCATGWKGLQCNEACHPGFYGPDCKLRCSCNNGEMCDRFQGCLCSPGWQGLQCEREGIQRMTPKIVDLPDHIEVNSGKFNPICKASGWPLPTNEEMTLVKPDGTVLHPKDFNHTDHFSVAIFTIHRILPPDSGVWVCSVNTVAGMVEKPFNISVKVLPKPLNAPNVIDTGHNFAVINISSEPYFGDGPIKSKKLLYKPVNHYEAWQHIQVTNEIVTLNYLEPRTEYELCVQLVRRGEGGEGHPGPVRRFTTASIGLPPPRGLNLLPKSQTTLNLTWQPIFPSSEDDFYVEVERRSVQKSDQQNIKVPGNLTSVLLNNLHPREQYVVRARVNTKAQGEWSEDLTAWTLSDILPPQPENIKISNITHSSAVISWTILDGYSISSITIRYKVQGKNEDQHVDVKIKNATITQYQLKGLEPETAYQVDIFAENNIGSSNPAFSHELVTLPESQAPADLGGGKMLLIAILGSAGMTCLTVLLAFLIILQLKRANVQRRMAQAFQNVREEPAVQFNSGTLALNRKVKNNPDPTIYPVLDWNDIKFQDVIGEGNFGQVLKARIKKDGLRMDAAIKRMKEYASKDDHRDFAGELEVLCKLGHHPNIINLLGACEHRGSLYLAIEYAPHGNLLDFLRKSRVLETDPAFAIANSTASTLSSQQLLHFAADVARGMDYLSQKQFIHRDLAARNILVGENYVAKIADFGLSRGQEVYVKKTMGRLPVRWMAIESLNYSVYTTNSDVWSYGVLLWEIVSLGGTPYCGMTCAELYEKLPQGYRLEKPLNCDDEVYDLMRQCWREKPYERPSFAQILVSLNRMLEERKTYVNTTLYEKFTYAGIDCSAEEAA
T25 sequence (Q04759 whole entry): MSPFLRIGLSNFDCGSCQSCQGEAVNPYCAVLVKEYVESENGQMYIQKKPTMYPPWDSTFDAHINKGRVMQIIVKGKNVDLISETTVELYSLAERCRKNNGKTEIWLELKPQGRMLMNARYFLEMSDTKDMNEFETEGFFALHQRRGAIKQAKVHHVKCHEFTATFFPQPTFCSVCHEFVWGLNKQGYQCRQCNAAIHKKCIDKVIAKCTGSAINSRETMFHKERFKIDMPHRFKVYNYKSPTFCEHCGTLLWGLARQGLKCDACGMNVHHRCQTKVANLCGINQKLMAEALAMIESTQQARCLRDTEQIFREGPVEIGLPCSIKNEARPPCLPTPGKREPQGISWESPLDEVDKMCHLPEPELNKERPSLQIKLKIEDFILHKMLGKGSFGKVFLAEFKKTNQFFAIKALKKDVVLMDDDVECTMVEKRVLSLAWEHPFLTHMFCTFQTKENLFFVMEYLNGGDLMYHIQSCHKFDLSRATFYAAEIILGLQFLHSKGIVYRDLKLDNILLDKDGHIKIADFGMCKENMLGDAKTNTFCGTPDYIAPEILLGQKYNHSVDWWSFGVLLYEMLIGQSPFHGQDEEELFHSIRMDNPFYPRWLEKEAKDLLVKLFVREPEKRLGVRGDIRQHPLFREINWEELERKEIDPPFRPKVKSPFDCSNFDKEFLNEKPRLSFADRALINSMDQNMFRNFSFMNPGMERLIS
T5 sequence (Q00535 whole entry): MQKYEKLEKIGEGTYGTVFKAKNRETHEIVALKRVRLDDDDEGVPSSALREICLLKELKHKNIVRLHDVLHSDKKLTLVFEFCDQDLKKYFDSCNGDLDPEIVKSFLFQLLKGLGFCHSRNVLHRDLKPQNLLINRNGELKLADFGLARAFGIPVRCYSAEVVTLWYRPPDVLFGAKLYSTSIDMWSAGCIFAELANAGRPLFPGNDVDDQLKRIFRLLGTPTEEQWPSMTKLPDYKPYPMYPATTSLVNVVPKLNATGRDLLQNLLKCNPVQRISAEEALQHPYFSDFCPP
T5 sequence (Q15078 99-307 partner limits assumed): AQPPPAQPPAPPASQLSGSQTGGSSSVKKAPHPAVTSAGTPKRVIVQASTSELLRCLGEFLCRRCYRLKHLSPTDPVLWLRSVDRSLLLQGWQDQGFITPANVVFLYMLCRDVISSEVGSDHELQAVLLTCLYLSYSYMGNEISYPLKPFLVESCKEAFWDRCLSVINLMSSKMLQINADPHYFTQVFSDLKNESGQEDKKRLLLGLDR
T1 sequence (P10398 whole entry): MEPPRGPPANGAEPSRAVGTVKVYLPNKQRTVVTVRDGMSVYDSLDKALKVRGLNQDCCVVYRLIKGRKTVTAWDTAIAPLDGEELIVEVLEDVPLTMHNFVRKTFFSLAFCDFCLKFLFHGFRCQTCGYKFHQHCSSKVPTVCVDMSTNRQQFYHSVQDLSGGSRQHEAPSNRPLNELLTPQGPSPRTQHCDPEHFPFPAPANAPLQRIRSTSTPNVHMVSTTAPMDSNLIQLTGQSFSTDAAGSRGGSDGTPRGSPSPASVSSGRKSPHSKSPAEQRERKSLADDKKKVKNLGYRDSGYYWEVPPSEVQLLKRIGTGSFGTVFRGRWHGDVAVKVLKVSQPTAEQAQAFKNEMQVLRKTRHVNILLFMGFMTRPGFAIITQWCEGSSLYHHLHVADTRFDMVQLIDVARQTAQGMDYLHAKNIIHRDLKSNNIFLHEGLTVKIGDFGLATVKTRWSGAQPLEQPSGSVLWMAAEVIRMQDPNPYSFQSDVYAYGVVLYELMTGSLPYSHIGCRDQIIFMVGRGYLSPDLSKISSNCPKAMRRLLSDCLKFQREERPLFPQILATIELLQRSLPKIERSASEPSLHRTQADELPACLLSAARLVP

## Cc1cc(/C=C/C#N)cc(C)c1Nc1ccnc(Nc2ccc(C#N)cc2)n1 [rilpivirine, (E)-4-((4-((4-(2-cyanoethenyl)-2,6-dimethylphenyl)amino)pyrimidin-2-yl)amino)benzonitrile]
A-Raf(h)
  remaining activity at 1 µM: 101%
AMPKα1(h)
  remaining activity at 1 µM: 44%
AMPKα2(h)
  remaining activity at 1 µM: 48%
CDK2/cyclinA(h)
  remaining activity at 1 µM: 87%
CDK5/p25(h)
  remaining activity at 1 µM: 97%
CHK2(h)
  remaining activity at 1 µM: 93%
CLK3(h)
  remaining activity at 1 µM: 93%
DYRK2(h)
  remaining activity at 1 µM: 89%
FGFR1(V561M)(h)
  remaining activity at 1 µM: 97%
Hck(h) activated
  remaining activity at 1 µM: 63%
ICK(h)
  remaining activity at 1 µM: 99%
IR(h), activated
  remaining activity at 1 µM: 85%
MAPK2(h)
  remaining activity at 1 µM: 101%
MAPKAP-K2(h)
  remaining activity at 1 µM: 100%
MAPKAP-K3(h)
  remaining activity at 1 µM: 90%
MARK3(h)
  remaining activity at 1 µM: 87%
MEK1(h)
  remaining activity at 1 µM: 101%
MRCKα(h)
  remaining activity at 1 µM: 86%
MSK2(h)
  remaining activity at 1 µM: 105%
Met(M1268T)(h)
  remaining activity at 1 µM: 109%
NEK4(h)
  remaining activity at 1 µM: 97%
PDGFRα(h)
  remaining activity at 1 µM: 96%
[1]
  remaining activity at 1 µM: 93%
PI3KC2g(h)
  remaining activity at 1 µM: 82%
PIP5K1g(h)
  remaining activity at 1 µM: 76%
PKA(h)
  remaining activity at 1 µM: 93%
PKAcβ(h)
  remaining activity at 1 µM: 93%
PKCθ(h)
  remaining activity at 1 µM: 66%
PRP4(h)
  remaining activity at 1 µM: 113%
Ret(h)
  remaining activity at 1 µM: 108%
Rsk1(r)
  remaining activity at 1 µM: 90%
SIK3(h)
  remaining activity at 1 µM: 89%
TLK1(h)
  remaining activity at 1 µM: 95%
TRB2(h)
  remaining activity at 1 µM: 65%
TSSK2(h)
  remaining activity at 1 µM: 91%
TTBK1(h)
  remaining activity at 1 µM: 90%
Tie2(Y897S)(h)
  remaining activity at 1 µM: 96%
cSRC(h)
  remaining activity at 1 µM: 53%
